{"source": "patent US20240182513A1", "about": "“SEPARATION OF METAL IONS FROM A SAMPLE USING GLYCOLIPIDS” (ARIZONA BOARD OF REGENTS ON BEHALF OF THE UNIVERSITY OF …, priority 2021, published 2024)", "key": {"[1]": {"experiment": "Example 2.1 rhamnolipid precipitation, filtration, centrifugation: lanthanum", "conditions": "for Treatment 2: Rhamnolipid and Filtration Cf / Treatment 3: Rhamnolipid and Centrifugation Cc / Treatment 1: Rhamnolipid Only Cr: lanthanum concentration after treatment; for Treatment 1: Rhamnolipid Only (Rr) efficiency of removal / Treatment 2: Rhamnolipid and Filtration (Rf) efficiency of removal / Treatment 3: Rhamnolipid and Centrifugation (Rc) efficiency of removal: lanthanum", "method": "(§1) Structural variants of synthetic glycolipids were used to show the effect of the number and length of the hydrophobic tail(s) on rhamnolipid as a chemical precipitant. […] Solutions (10 mM) were made using nanopure water (≥18 MΩ-cm) then adjusted to a pH of 6.9±0.05 with HNO3 and NaOH. These solutions were made in advance and stored in the cold room for up to one month. They were brought to room temperature before each experiment.\n(§2) Three metals were tested for binding with rhamnolipid. Lead as […] (Fisher Scientific, Waltham, MA, 99% purity), was chosen to represent a metal with high rhamnolipid-metal conditional stability constant; lanthanum as La(NO3)3 6(H2O) (Sigma-Aldrich, St. Louis, MO, 99.99% purity) was chosen as a representative REE; and magnesium as Mg(NO3)2 6(H2O) (Sigma-Aldrich, St. Louis, MO, 99% purity) was chosen to represent a metal with a low rhamnolipid-metal conditional stability constant (Hogan et al., 2017). Metal solutions (5 mM) were made using nanopure water (≥18 MΩ-cm) in 20 ml glass scintillation vials. All solutions were used within 15 min to ensure minimal adsorption to the glass vial.\n(§3) Three glycolipid-based treatments were evaluated to remove metal from solution: (1) the addition of glycolipid with no further treatment (gravitational precipitation), (2) the addition of a glycolipid followed by filtration or (3) the addition of a glycolipid followed by centrifugation. Each metal (Pb, La, and Mg) was evaluated separately with each of the glycolipid structures. For each experiment, a metal solution was mixed with a glycolipid solution in a 1.7 ml reaction tube at varying molar ratios of glycolipid to metal: 0:1 (glycolipid-free control), 2:1, 5:1, and 10:1. The reactions were mixed in the order of nanopure water (≥18 MΩ-cm), glycolipid solution (10 mM), then metal solution (5 mM). The metal and glycolipid solutions were continuously stirred as they were aliquoted into the reaction tubes. The experiment was performed in triplicate.\n(§4) The reaction tubes were mixed overnight (16 to 24 h) and then three samples were collected from each tube to measure the effect of each of the three treatments: a glycolipid only treatment sample, a filtration treatment sample, and a centrifugation treatment sample. Briefly, for the glycolipid only treatment samples all tubes were vortexed for approximately 5 sec immediately before removing 0.1 ml into a dilution tube of 2% trace metal grade nitric acid (12 to 14 ml) to minimize the settling of particles. For the filtration samples each reaction tube was vortexed for 5 sec and then a 0.6 ml aliquot was collected with a 1 ml syringe. A GHP acrodisc disk filter (hydrophilic polypropylene membrane, 0.45 μm pore size, 25 mm disc diameter) from Pall Life Sciences (Port Washington, New York) was then placed onto the end of the syringe and the solution was pushed through the filter. The void space in the disk filter holds approximately 0.5 ml, therefore around 0.1 ml of filtrate was collected into a dilution tube. For the centrifugation sample, the remaining solution was centrifuged at 10,000 RCF for 15 min. Approximately 0.1 ml of the supernatant was aliquoted into a dilution tube. Following collection, all samples were taken for metal analysis using ICP-MS."}, "[2]": {"experiment": "Example 2.1 rhamnolipid precipitation, filtration, centrifugation: lead", "conditions": "for Treatment 2: Rhamnolipid and Filtration Cf / Treatment 3: Rhamnolipid and Centrifugation Cc / Treatment 1: Rhamnolipid Only Cr: lead concentration after treatment; for Treatment 1: Rhamnolipid Only (Rr) efficiency of removal / Treatment 2: Rhamnolipid and Filtration (Rf) efficiency of removal / Treatment 3: Rhamnolipid and Centrifugation (Rc) efficiency of removal: lead", "method": "as §1, §2, §3, §4"}, "[3]": {"experiment": "Example 2.1 rhamnolipid precipitation, filtration, centrifugation: magnesium", "conditions": "for Treatment 2: Rhamnolipid and Filtration Cf / Treatment 3: Rhamnolipid and Centrifugation Cc / Treatment 1: Rhamnolipid Only Cr: magnesium concentration after treatment; for Treatment 2: Rhamnolipid and Filtration (Rf) efficiency of removal: magnesium", "method": "as §1, §2, §3, §4"}}, "data": [{"compound": "CCCCCCCCCCCC(CC(=O)O)OC1O[C@@H](C)[C@H](O)[C@@H](O)[C@H]1O", "note": "(stereo partly shown) [Rha C14]", "values": [{"measurement": "Treatment 2: Rhamnolipid and Filtration Cf", "setting": "[1]; molar ratio 2 to 1", "result": "0.164 ± 0.058", "unit": "mmol/L"}, {"measurement": "Treatment 3: Rhamnolipid and Centrifugation Cc", "setting": "[1]; molar ratio 2 to 1", "result": "0.221 ± 0.014", "unit": "mmol/L"}, {"measurement": "Treatment 1: Rhamnolipid Only Cr", "setting": "[1]; molar ratio 5 to 1", "result": "0.215 ± 0.024", "unit": "mmol/L"}, {"measurement": "Treatment 2: Rhamnolipid and Filtration Cf", "setting": "[1]; molar ratio 5 to 1", "result": "0.044 ± 0.007", "unit": "mmol/L"}, {"measurement": "Treatment 3: Rhamnolipid and Centrifugation Cc", "setting": "[1]; molar ratio 5 to 1", "result": "0.094 ± 0.002", "unit": "mmol/L"}, {"measurement": "Treatment 1: Rhamnolipid Only Cr", "setting": "[1]; molar ratio 10 to 1", "result": "0.314 ± 0.016", "unit": "mmol/L"}, {"measurement": "Treatment 2: Rhamnolipid and Filtration Cf", "setting": "[1]; molar ratio 10 to 1", "result": "0.0 ± 0.000", "unit": "mmol/L"}, {"measurement": "Treatment 3: Rhamnolipid and Centrifugation Cc", "setting": "[1]; molar ratio 10 to 1", "result": "0.006 ± 0.001", "unit": "mmol/L"}, {"measurement": "Treatment 1: Rhamnolipid Only Cr", "setting": "[1]; molar ratio rhamnolipid:lanthanum 2 to 1", "result": "0.247 ± 0.034", "unit": "mmol/L"}, {"measurement": "Treatment 1: Rhamnolipid Only (Rr) efficiency of removal", "setting": "[1]; molar ratio 2 to 1", "result": "(16.9%)"}, {"measurement": "Treatment 2: Rhamnolipid and Filtration (Rf) efficiency of removal", "setting": "[1]; molar ratio 2 to 1", "result": "(44.9%)"}, {"measurement": "Treatment 3: Rhamnolipid and Centrifugation (Rc) efficiency of removal", "setting": "[1]; molar ratio 2 to 1", "result": "(25.8%)"}, {"measurement": "Treatment 1: Rhamnolipid Only (Rr) efficiency of removal", "setting": "[1]; molar ratio 5 to 1", "result": "(27.7%)"}, {"measurement": "Treatment 2: Rhamnolipid and Filtration (Rf) efficiency of removal", "setting": "[1]; molar ratio 5 to 1", "result": "(85.3%)"}, {"measurement": "Treatment 3: Rhamnolipid and Centrifugation (Rc) efficiency of removal", "setting": "[1]; molar ratio 5 to 1", "result": "(68.5%)"}, {"measurement": "Treatment 2: Rhamnolipid and Filtration (Rf) efficiency of removal", "setting": "[1]; molar ratio 10 to 1", "result": "1.0 (99.9%)"}, {"measurement": "Treatment 3: Rhamnolipid and Centrifugation (Rc) efficiency of removal", "setting": "[1]; molar ratio 10 to 1", "result": "(98.0%)"}, {"measurement": "Treatment 2: Rhamnolipid and Filtration Cf", "setting": "[2]; molar ratio 2 to 1", "result": "0.031 ± 0.030", "unit": "mmol/L"}, {"measurement": "Treatment 3: Rhamnolipid and Centrifugation Cc", "setting": "[2]; molar ratio 2 to 1", "result": "0.194 ± 0.006", "unit": "mmol/L"}, {"measurement": "Treatment 1: Rhamnolipid Only Cr", "setting": "[2]; molar ratio 5 to 1", "result": "0.315 ± 0.004", "unit": "mmol/L"}, {"measurement": "Treatment 2: Rhamnolipid and Filtration Cf", "setting": "[2]; molar ratio 5 to 1", "result": "0.000 ± 0.000", "unit": "mmol/L"}, {"measurement": "Treatment 3: Rhamnolipid and Centrifugation Cc", "setting": "[2]; molar ratio 5 to 1", "result": "0.315 ± 0.006", "unit": "mmol/L"}, {"measurement": "Treatment 1: Rhamnolipid Only Cr", "setting": "[2]; molar ratio 10 to 1", "result": "0.311 ± 0.008", "unit": "mmol/L"}, {"measurement": "Treatment 2: Rhamnolipid and Filtration Cf", "setting": "[2]; molar ratio 10 to 1", "result": "0.001 ± 0.001", "unit": "mmol/L"}, {"measurement": "Treatment 3: Rhamnolipid and Centrifugation Cc", "setting": "[2]; molar ratio 10 to 1", "result": "0.327 ± 0.001", "unit": "mmol/L"}, {"measurement": "Treatment 1: Rhamnolipid Only Cr", "setting": "[2]; molar ratio rhamnolipid:lead 2 to 1", "result": "0.278 ± 0.011", "unit": "mmol/L"}, {"measurement": "Treatment 1: Rhamnolipid Only (Rr) efficiency of removal", "setting": "[2]; molar ratio 2 to 1", "result": "(13.3%)"}, {"measurement": "Treatment 2: Rhamnolipid and Filtration (Rf) efficiency of removal", "setting": "[2]; molar ratio 2 to 1", "result": "(90.2%)"}, {"measurement": "Treatment 3: Rhamnolipid and Centrifugation (Rc) efficiency of removal", "setting": "[2]; molar ratio 2 to 1", "result": "(39.4%)"}, {"measurement": "Treatment 1: Rhamnolipid Only (Rr) efficiency of removal", "setting": "[2]; molar ratio 5 to 1", "result": "(1.6%)"}, {"measurement": "Treatment 2: Rhamnolipid and Filtration (Rf) efficiency of removal", "setting": "[2]; molar ratio 5 to 1", "result": "(100.0%)"}, {"measurement": "Treatment 3: Rhamnolipid and Centrifugation (Rc) efficiency of removal", "setting": "[2]; molar ratio 5 to 1", "result": "(1.8%)"}, {"measurement": "Treatment 1: Rhamnolipid Only (Rr) efficiency of removal", "setting": "[2]; molar ratio 10 to 1", "result": "(3.0%)"}, {"measurement": "Treatment 2: Rhamnolipid and Filtration (Rf) efficiency of removal", "setting": "[2]; molar ratio 10 to 1", "result": "(99.7%)"}, {"measurement": "Treatment 2: Rhamnolipid and Filtration Cf", "setting": "[3]; molar ratio 2 to 1", "result": "0.147 ± 0.045", "unit": "mmol/L"}, {"measurement": "Treatment 3: Rhamnolipid and Centrifugation Cc", "setting": "[3]; molar ratio 2 to 1", "result": "0.292 ± 0.008", "unit": "mmol/L"}, {"measurement": "Treatment 1: Rhamnolipid Only Cr", "setting": "[3]; molar ratio 5 to 1", "result": "0.300 ± 0.018", "unit": "mmol/L"}, {"measurement": "Treatment 2: Rhamnolipid and Filtration Cf", "setting": "[3]; molar ratio 5 to 1", "result": "0.088 ± 0.042", "unit": "mmol/L"}, {"measurement": "Treatment 3: Rhamnolipid and Centrifugation Cc", "setting": "[3]; molar ratio 5 to 1", "result": "0.279 ± 0.016", "unit": "mmol/L"}, {"measurement": "Treatment 1: Rhamnolipid Only Cr", "setting": "[3]; molar ratio 10 to 1", "result": "0.302 ± 0.017", "unit": "mmol/L"}, {"measurement": "Treatment 2: Rhamnolipid and Filtration Cf", "setting": "[3]; molar ratio 10 to 1", "result": "0.009 ± 0.004", "unit": "mmol/L"}, {"measurement": "Treatment 3: Rhamnolipid and Centrifugation Cc", "setting": "[3]; molar ratio 10 to 1", "result": "0.219 ± 0.021", "unit": "mmol/L"}, {"measurement": "Treatment 1: Rhamnolipid Only Cr", "setting": "[3]; molar ratio rhamnolipid:magnesium 2 to 1", "result": "0.291 ± 0.005", "unit": "mmol/L"}, {"measurement": "Treatment 2: Rhamnolipid and Filtration (Rf) efficiency of removal", "setting": "[3]; molar ratio 2 to 1", "result": "(45.0%)"}, {"measurement": "Treatment 2: Rhamnolipid and Filtration (Rf) efficiency of removal", "setting": "[3]; molar ratio 5 to 1", "result": "(66.9%)"}, {"measurement": "Treatment 2: Rhamnolipid and Filtration (Rf) efficiency of removal", "setting": "[3]; molar ratio 10 to 1", "result": "(96.6%)"}]}]}
